Like-named read-outs stand apart in the source and are kept apart here.
Tests used:
[1] = target: T1, Calmodulin-dependent cyclic-AMP phosphodiesterase (EC 3.1.4.17) (Bos taurus, UniProt P14100); test: Pharmacological Test-2 (2): Cyclic-AMP phosphodiesterase inhibitory activity (EGTA in place of CaCl2); format: biochemical, bovine
T1 construct: An enzyme substance isolated from the heart of bovine and purified partially; from tissue; host or cells: bovine heart
Description: (§1) (2) Calmodulin-dependent cyclic-AMP phosphodiesterase (EC 3.1.4.17): An enzyme substance isolated from the heart of bovine and purified partially by a method of modified version of the disclosure in H. C. Ho, T. S. Teo, et al.: "Biochim. Biophys. Acta", 429, 461 (1976).
(§2) (3) 5'-Nucleotidase (EC 3.1.3.5): Grade IV substance (isolated from Crotalus adamanteus venom) manufactured by Sigma & Co.
(§3) (4) Others: Remainder of the reagents used in the test were those of reagent grade chemicals manufactured by Wako Pure-Chemical Industries, Ltd.
(§4) Calmodulin inhibitory activity of each of the test compounds was measured by a method of modified version of the disclosure in T. S. Teo and T. H. Wang: "J. Bio. Chem.", 248, 588 (1973).
(§5) (3) 5'-Nucleotidase: One unit thereof hydrolyzes 1.0 micromole of inorganic phosphorus from adnosine 5'-monophosphate per minute at pH 9.0 at 37° C.
(§6) 40 mM of Imidazol, 20 mM of MgCl2, 20 mM of CaCl2, 0.008 […] of cyclic-AMP phosphodiesterase, 1.0 unit of calmodulin, 0.2 unit of 5'-nucleotidase and 1.0 ml of 10 mM-tris(hydroxymethyl)aminomethane/HCl buffer solution (pH 7.0) containing 0.5 mM of cyclic-AMP were mixed together, and reacted at 30° C. for 30 minutes. Each of the test compounds were dissolved in methanol or N,N-dimethylformamide as the solvent, provided that the quanitty of the solvent was not exceed 2% of the total amount of the mixture. After the reaction was completed, the reaction mixture was ice-cooled, and 0.5 ml each of aqueous solutions of 16.5%-trichloroacetic acid, 1%-thiourea, 3%-ammonium ferrous sulfate were respectively added to the reaction mixture. Further, 0.15 ml of 4.4%-ammonium molibdate solution was added to the mixture and the whole of the mixture was stirred, and was centrifuged at 3,000 r.p.m. for 10 minutes. Then, the centrifuged mixture was allowed to stand at a room temperature for 20 minutes. The OD660 nm (optical density at 660 nm) was measured.
(2) Cyclic-AMP phosphodiesterase inhibitory activity:
The reaction was conducted by a method similar to that described in (1) as mentioned above, except that 1 mM of EGTA [ethylene glycol-bis(β-aminoethyl ether)-N,N-tetraacetic acid] was used in place of 20 mM of CaCl2. The reaction was conducted for 3 hours.

[2] = target: T2, Calmodulin-cyclic-AMP phosphodiesterase (Bos taurus, UniProt P14100+P62157); test: Pharmacological Test-2 (1): Calmodulin-cyclic-AMP phosphodiesterase inhibitory activity (with calmodulin, CaCl2); format: biochemical, bovine; conditions: in the presence of calmodulin, CaCl2, pH 7.0, 30° C., 30 minutes
T2 construct: An enzyme substance isolated from the heart of bovine and purified partially; which was isolated from the brain of bovine, and purified so as to be considered as a single substance; from tissue; host or cells: bovine heart (phosphodiesterase); the calmodulin is a bovine brain product of Amano & Co
Description: (1) Calmodulin: A calmodulin product manufactured by Amano & Co., which was isolated from the brain of bovine, and purified so as to be considered as a single substance with respect to SDS-page (polyacrylamide gel electrophoresis) method.
as §1, §2, §3, §4
(2) Calmodulin: One unit thereof stimulates 0.015 activated unit of cyclic-AMP phosphodiesterase to 50% of the maximum activity of the enzyme.
as §5
(3) Reactions in the tests (1) Calmodulin-cyclic-AMP phosphodiesterase inhibitory activity:
as §6

[3] = test system: SHR-rats (spontaneously hypertensive rats); test: Pharmacological Test-1: vasodilative effect, systolic blood pressure of SHR-rats by tail cuff method after oral administration; format: in vivo; conditions: 30 mg/kg p.o.
Description: Vasodilative effects of the dihydropyridine derivatives of the present invention were determined by measuring the systolic blood pressures of test animals before and after the administration of test compound.
Systolic blood pressures and heart beat of SHR-rats (spontaneously hypertensive rats) were determined by a "tail cuff method". Thus the test animal was placed in a thermostat chamber (Type: FR-12RS, manufactured by Isuze & Co.) and was warmed at 40° C. for 15 minutes so as to vasodilate the tail arteria, the systolic blood pressures were measured by an electro sphygmomanometer (Type: PE-300, manufactured by Narco-Biosystems, Inc.) and recorded by an ink-writing recorder (Type: RECTIHORIZ 8s, manufactured by San-Ei Instrument & Co.). The experiments were conducted under non-anesthetized and semi-confinement conditions. The test compound was orally administered forcedly by using a sonde for oral administration. The test compound was suspended in 0.15%-gum arabic powder aqueous solution so as to make the quantity of the test compound to 2.5 ml/kg. The test animal was not fasted, and the systolic blood pressures (mm-Hg) were measured before the administration (hereinafter referred to as "PRE") and after the administration (8, 24, 30, 48, 54 and 72 hours after the administration) of the test compound. The data of systolic blood pressure measured before the administration are shown in absolute value of mmHg, and the data measured after the administration are shown in the differences from the absolute values.

[4] = 1 mM EGTA in place of CaCl2, 3 hours, read-out: Cyclic-AMP phosphodiesterase IC50 (converted)

T1 sequence (P14100 1-514 isoform P14100-2): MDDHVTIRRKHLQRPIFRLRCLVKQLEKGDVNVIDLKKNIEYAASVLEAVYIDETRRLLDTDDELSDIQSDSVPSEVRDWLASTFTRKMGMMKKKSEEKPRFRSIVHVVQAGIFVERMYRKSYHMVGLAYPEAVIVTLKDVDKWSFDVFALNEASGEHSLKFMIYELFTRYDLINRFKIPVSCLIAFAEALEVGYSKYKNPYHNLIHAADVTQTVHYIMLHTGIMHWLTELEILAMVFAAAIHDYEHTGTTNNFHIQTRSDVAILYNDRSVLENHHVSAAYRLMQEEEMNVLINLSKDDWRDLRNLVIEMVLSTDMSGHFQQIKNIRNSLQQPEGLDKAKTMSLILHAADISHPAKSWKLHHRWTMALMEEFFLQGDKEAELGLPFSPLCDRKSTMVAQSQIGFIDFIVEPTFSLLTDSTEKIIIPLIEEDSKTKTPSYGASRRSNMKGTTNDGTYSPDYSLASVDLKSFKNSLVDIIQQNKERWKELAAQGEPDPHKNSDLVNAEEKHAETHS

Compound: COC(=O)C1=C(C)NC(C)=C(C(=O)OC/C=C/c2ccc(OC(C)=O)cc2)C1c1cccc([N+](=O)[O-])c1 (stereo not drawn) [Example 14]
- IC50 [1, 4]: 98.7 µM

Compound: COC(=O)C1=C(C)NC(C)=C(C(=O)OC/C=C/c2ccc(O)cc2)C1c1cccc([N+](=O)[O-])c1 (stereo not drawn) [Test Compound 1, Methyl 3-(4-hydroxyphenyl)-2(E)-propenyl 1,4-dihydro-2,6-dimethyl-4-(3-nitrophenyl)pyridine-3,5-dicarboxylate]
- IC50 [2]: 8.83 µM
- IC50 [1, 4]: 129 µM

Compound: COC(=O)C1=C(C)NC(C)=C(C(=O)OC/C=C/c2ccccc2)C1c1cccc([N+](=O)[O-])c1 (stereo not drawn) [Test Compound 2, Methyl 3-phenyl-2(E)-propenyl 1,4-dihydro-2,6-dimethyl-4-(3-nitrophenyl)pyridine-3,5-dicarboxylate]
- IC50 [1, 4]: > 223 µM

Compound: COC(=O)C1=C(C)NC(C)=C(C(=O)OC/C=C/C=C/c2ccc(O)cc2)C1c1cccc([N+](=O)[O-])c1 (stereo not drawn) [Test Compound 3, Methyl 5-(4-hydroxyphenyl)-2(E),4(E)-pentadienyl 1,4-dihydro-2,6-dimethyl-4-(3-nitrophenyl)-pyridine-3,5-dicarboxylate]
- IC50 [1, 4]: > 204 µM

Compound: COC(=O)C1=C(C)NC(C)=C(C(=O)OC/C=C/c2ccc(O)c(OC)c2)C1c1cccc([N+](=O)[O-])c1 (stereo not drawn) [Test Compound 7, Methyl 3-(3-methoxy-4-hydroxyphenyl)-2(E)-propenyl 1,4-dihydro-2,6-dimethyl-4-(3-nitrophenyl)pyridine-3,5-dicarboxylate]
- IC50 [1, 4]: 174 µM

Compound: COC(=O)C1=C(C)NC(C)=C(C(=O)OC/C=C/c2ccc(OC)cc2)C1c1cccc([N+](=O)[O-])c1 (stereo not drawn) [Test Compound 8]
- IC50 [1, 4]: > 209 µM

Compound: COC(=O)C1=C(C)NC(C)=C(C(=O)OC/C=C/c2ccc(O)c(Cl)c2)C1c1cccc([N+](=O)[O-])c1 (stereo not drawn) [Test Compound 9, Methyl 3-(3-chloro-4-hydroxyphenyl)-2(E)-propenyl 1,4-dihydro-2,6-dimetyyl-4-(3-nitrophenyl)pyridine-3,5-dicarboxylate]
- IC50 [1, 4]: > 200 µM

Compound: COC(=O)C1=C(C)NC(C)=C(C(=O)OCC#Cc2ccc(O)cc2)C1c1cccc([N+](=O)[O-])c1 (stereo not drawn) [Test Compound 10, Methyl 3-(4-hydroxyphenyl)-2-propynyl 1,4-dihydro-2,6-dimetyyl-4-(3-nitrophenyl)-pyridine-3,5-dicarboxylate]
- IC50 [2]: 1.69 µM
- IC50 [1, 4]: 28.1 µM

Compound: COC(=O)C1=C(C)NC(C)=C(C(=O)OC/C=C/c2ccccc2O)C1c1cccc([N+](=O)[O-])c1 (stereo not drawn) [Test Compound 11, Methyl 3-(2-hydroxyphenyl)-2(E)-propenyl 1,4-dihydro-2,6-dimethyl-4-(3-nitrophenyl)-pyridine-3,5-dicarboxylate]
- IC50 [1, 4]: 26.9 µM

Compound: COC(=O)C1=C(C)NC(C)=C(C(=O)OC/C=C/c2ccc(O)cc2)C1c1ccccc1C(F)(F)F (stereo not drawn) [Test Compound 12]
- IC50 [1, 4]: > 205 µM

Compound: COC(=O)C1=C(C)NC(C)=C(C(=O)OCC/C=C/c2ccc(SC)cc2)C1c1cccc([N+](=O)[O-])c1 (stereo not drawn) [Test Compound 13, Methyl 4-(4-methylthiophenyl)-3(E)-butenyl 1,4-dihydro-2,6-dimethyl-4-(3-nitrophenyl)-pyridine-3,5-dicarboxylate]
- IC50 [2]: 0.122 µM
- IC50 [1, 4]: 0.452 µM

Compound: COC(=O)C1=C(C)NC(C)=C(C(=O)OC/C=C/c2ccc(O)cc2)C1c1ccccc1 (stereo not drawn) [Test Compound 15, Methyl 3-(4-hydroxyphenyl)-2(E)-propenyl 1,4-dihydro-2,6-dimethyl-4-phenylpyridine-3,5-dicarboxylate]
- IC50 [1, 4]: 76.3 µM

Compound: COC(=O)C1=C(C)NC(C)=C(C(=O)OC/C=C/c2ccc(O)cc2)C1c1ccccc1C (stereo not drawn) [Test Compound 16, Methyl 3-(4-hydroxyphenyl)-2(E)-propenyl 1,4-dihydro-2,6-dimethyl-4-(2-methylphenyl)-pyridine-3,5-dicarboxylate]
- IC50 [1, 4]: 134 µM

Compound: COC(=O)C1=C(C)NC(C)=C(C(=O)OC/C=C/c2cccc(O)c2)C1c1ccccc1[N+](=O)[O-] (stereo not drawn) [Test Compound 17, Methyl 3-(3-hydroxyphenyl)-2(E)-propenyl 1,4-dihydro-2,6-dimethyl-4-(2-nitrophenyl)-pyridine-3,5-dicarboxylate]
- IC50 [2]: 1.94 µM
- IC50 [1, 4]: 53 µM

Compound: COC(=O)C1=C(C)NC(C)=C(C(=O)OCCN(C)Cc2ccccc2)C1c1cccc([N+](=O)[O-])c1 (stereo not drawn) [Test Compound 18, Methyl 2-(N--methyl-N--benzylamino)ethyl 1,4-dihydro-2,6-dimetyyl-4-(3-nitrophenyl)pyridine-3,5-dicarboxylate, reference compound]
- IC50 [1]: 27.1 µM

Compound: methyl 4-[(1-ethoxy)ethoxy]cinnamyl 1,4-dihydro-2,6-dimethyl-4-(3-nitrophenyl)pyridine-3,5-dicarboxylate [Example 1]
- Blood pressure after the administration, difference from the PRE value ([3]; 24 hours): -41.0 mm-Hg
- Blood pressure after the administration, difference from the PRE value ([3]; 30 hours): -52.0 mm-Hg
- Blood pressure after the administration, difference from the PRE value ([3]; 48 hours): -26.5 mm-Hg
- Blood pressure after the administration, difference from the PRE value ([3]; 54 hours): -19.8 mm-Hg
- Blood pressure after the administration, difference from the PRE value ([3]; 72 hours): -12.5 mm-Hg

Reference: patent publication US4795814A, “Process for preparing novel dihydropyridine derivatives” (Otsuka Pharmaceutical Co., Ltd., priority 1984, dated 1989)
